Article PMC12606616, “Synthesis, Characterization, and In Vitro and In Silico Studies of New Triazole Derivatives as Aromatase Inhibitors” (Medicinal Chemistry (Shariqah (United Arab Emirates), 2024)
One block for each compound: values may come before it.

Key:
[1] = tested on: NIH3T3 (normal fibroblast cell); test: MTT cytotoxicity assay, NIH3T3 healthy cell line; type: cell-based; conditions: Mus musculus, 24-hour MTT, read-out: IC50 against NIH3T3
Experimental: (§1) Cytotoxicity studies were carried out using the MTT method, based on the principle of forming purple formazan salt. The MTT procedure was performed using a CO2 incubator during a 24-hour incubation period, as described in our previous publications. The results were detected with a microplate reader.
(§2) For activity studies, the 24-hour MTT procedure was applied. A549 (Lung cancer cell) (ATCC-CRM-CCL-185), MCF-7 (breast cancer cell) (ATCC-HTB-22), and NIH3T3 (normal fibroblast cell) (ATCC-CRL-1658) were used. Looking at the activity results, compound 4d is promising. […] The value shown against the MCF-7 cell line is especially important. Therefore, compound 4d was subjected to the aromatase enzyme inhibition test in vitro. When the structure of compound 4d was examined, unlike other compounds, it carried a nitro substitution in the fourth position of the phenyl ring.

[2] = tested on: MCF-7 (breast cancer cell); test: MTT cytotoxicity assay, MCF-7; type: cell-based; conditions: Homo sapiens, MCF7; 24-hour MTT, MCF-7 cell line; read-out: IC50 against MCF-7
Experimental: as §1, §2

A549 (Lung cancer cell) = test: MTT cytotoxicity assay, A549; type: cell-based; conditions: Homo sapiens; 24-hour MTT, A549 cell line; read-out: IC50 against A549
Experimental: as §1, §2

DNA synthesis = test: BrdU analysis (DNA synthesis inhibition); type: cell-based
Experimental: Three different incubation periods were selected for the experiment, which was carried out according to the kit procedure. (BioVision, BrdU Cell Proliferation Assay Kit (Fluorometric)). Test results performed at 24-hour, 48-hour, and 72-hour periods were based on fluorimetric measurement of the color change caused by the addition of the stop solution. It enables us to find out where the anticancer effect of anticancer compounds originates from. In other words, the following question persists: by affecting which phase in the cell cycle is DNA synthesis inhibited? BrdU analysis is important to find the answer to this question.
With the Brdu studies, the potential of compound 4d to inhibit DNA synthesis was examined in 24-, 48- and 72-hour periods. […] Since DNA synthesis occurs in the […] of the cell cycle, it would be a correct approach to say that the compounds affect the G2 phase.

Aromatase (CYP19A) = target: T1, Aromatase (CYP19A) (Homo sapiens, UniProt P11511); test: Aromatase (CYP19A) inhibitor screening kit (fluorometric); type: biochemical; conditions: read-out: IC50 aromatase enzyme inhibition
T1 construct: purchased BioVision
T1 sequence (P11511 1-503): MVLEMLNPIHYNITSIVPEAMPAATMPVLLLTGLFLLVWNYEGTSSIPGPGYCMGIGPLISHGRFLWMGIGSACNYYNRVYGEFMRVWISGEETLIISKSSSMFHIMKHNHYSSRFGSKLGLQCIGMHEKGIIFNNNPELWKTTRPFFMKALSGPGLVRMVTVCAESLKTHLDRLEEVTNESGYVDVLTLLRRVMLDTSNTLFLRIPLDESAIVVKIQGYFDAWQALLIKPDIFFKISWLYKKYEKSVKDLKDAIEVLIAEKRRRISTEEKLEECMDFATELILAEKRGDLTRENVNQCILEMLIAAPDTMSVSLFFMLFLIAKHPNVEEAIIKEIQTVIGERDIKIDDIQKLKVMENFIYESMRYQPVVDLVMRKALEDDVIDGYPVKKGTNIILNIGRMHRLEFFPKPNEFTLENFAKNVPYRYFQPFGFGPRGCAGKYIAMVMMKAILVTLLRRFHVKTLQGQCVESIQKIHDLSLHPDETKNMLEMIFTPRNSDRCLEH
Experimental: In the experiment performed according to the kit procedure, IC50 values of the compound were calculated from the results obtained with the help of a microplate reader (BioVision, Aromatase (CYP19A) Inhibitor Screening Kit (Fluorometric)).

Compound: CCn1c(SCC(=O)c2ccc(Cl)cc2Cl)nnc1-c1[nH]cnc1C [Compound 4j]
IC50 [1]: 18.4 µM
IC50 [2]: 28.9 µM
IC50 (A549 (Lung cancer cell)): 66.1 µM

Compound: CCn1c(SCC(=O)c2ccc(F)cc2F)nnc1-c1[nH]cnc1C [Compound 4i]
IC50 [1]: 27.2 µM
IC50 [2]: 64.4 µM
IC50 (A549 (Lung cancer cell)): 86.2 µM

Compound: CCn1c(SCC(=O)c2ccc(C)cc2C)nnc1-c1[nH]cnc1C [Compound 4h]
IC50 [1]: 27.2 µM
IC50 [2]: > 100 µM
IC50 (A549 (Lung cancer cell)): 17.2 µM

IC50 (Aromatase (CYP19A)): 0.097 µM
Compound: CCn1c(SCC(=O)c2ccc([N+](=O)[O-])cc2)nnc1-c1nc[nH]c1C [Compound 4d, 2-((4-ethyl-5-(5-methyl-1H-imidazol-4-yl)-4H-1,2,4-triazol-3-yl)thio)-1-(4-nitrophenyl) ethan-1-one]
DNA synthesis inhibition (DNA synthesis; 24-hour incubation, 2xIC50 dose): 63.3%
DNA synthesis inhibition (DNA synthesis; 24-hour incubation, IC50/2 dose): 16.1%
DNA synthesis inhibition (DNA synthesis; 24-hour incubation, IC50 dose): 28.1%
DNA synthesis inhibition (DNA synthesis; 48-hour incubation, 2xIC50 dose): 79.0%
DNA synthesis inhibition (DNA synthesis; 48-hour incubation, IC50/2 dose): 40.4%
DNA synthesis inhibition (DNA synthesis; 48-hour incubation, IC50 dose): 77.5%
DNA synthesis inhibition (DNA synthesis; 72-hour incubation, 2xIC50 dose): 92.4%
DNA synthesis inhibition (DNA synthesis; 72-hour incubation, IC50/2 dose): 77.8%
DNA synthesis inhibition (DNA synthesis; 72-hour incubation, IC50 dose): 80.6%
IC50 [1]: 13.2 µM
IC50 [2]: 6.73 µM
IC50 (A549 (Lung cancer cell)): 17.2 µM
